Here are results for one compound from patent publication US20120315308A1, “METHODS AND DEVICES FOR CONTROLLING PARTICLE SIZE AND PARTICLE SIZE DISTRIBUTION” (priority 2010, published 2012).

Each structure is given as a SMILES string. Values joined by “and” are separate entries in the source; they are usually repeats but may differ in a detail not shown here. Equal values may be shown once. Read-outs that look alike come from different tables or passages of the source.

The procedure of the data set: A submicron dispersion of naproxen was prepared using the enhanced initial dispersion followed by a secondary high shear mixing process. The following equipment was used for the experiment:
(1) An Ivek Digispense 3009 controller with an AP motor/base assembly and a AA pump body.
(2) A Micronoson Ultrasonic Cell Distruptor, XL 100 watt ultrasonic controller and a Misonix 22.5 kHz ultrasonic transducer horn with a coaxillal center feed.
(3) Microfluidizer—Microfluidics M-110EH-25 high shear processor with a 75 micron F-20Y interaction chamber.
(4) Horiba LA-950 Laser Diffraction Particle Size Analyzer.
The Ivek Digispense pump speed was calibrated to 20 mL/min.
The end of the ultrasonic horn, also referred to as an ultrasonic probe, was suspended in air, the power to the Ivek pump and the ultrasonic probe was turned on. Ultrasonic power was set to 20 watts. The height of the ultrasonic probe dispense tubing was adjusted until the feed liquid was dispersed as small droplets, thereby creating a fine spray. The tubing was fixed at this height, as above and below this height, dispensed liquid simply drips from the probe.
The tip of the ultrasonic transducer horn was secured just above the check valve in the feed reservoir. The antisolvent was a 0.5% Triton X-100 in dionized water, and 190 mL of the antisolvent was added to the inlet reservoir of the Microfluidizer. Naproxen has a tendency to agglomerate, therefore, nonionic Triton X-100 surfactant was used as the antisolvent.
DMSO was used as the solvent and it contained 13.75 g naproxen per 100 mL solvent. An ice bath was used to chill the sample to avoid over heating with multiple passes.
The microfluidizer pressure was set to 24,000 psi, using the antisolvent. […] The outlet from the cooling coil of the microfluidizer was placed in the inlet reservoir to allow for recycling of the process. The Ivek Pump was set for 20 mL/min.
With the Microfluidizer running at 24,000 psi in a recirculation mode the Pump and Ulrasonic Probe were simutaneously turned on for 30 seconds and then immediately turned off. A single pass sample was collected for particle size analyzsis. This sample contained 1.375 grams of naproxen in the mixed solution of DMSO & 0.5% triton X-100 DI water. The Microfluidizer continued to run for an additional 150 seconds for a total of 180 seconds. After six passes, a sample was collected to evaulate particle size.
The graph presented in FIG. 3 is a plot of naproxen particle diameter (x axis) vs. frequency of occurrence of the particle diameter (y axis). Table 6 provides the mean and median particle size for each run.

The mark [1] stands for this setting: no ultrasonic step, 1 pass through Microfluidizer at 24,000 psi.
Where [2] appears, read: no ultrasonic step, 6 passes through Microfluidizer at 24,000 psi.
[3] abbreviates: with ultrasonic initial mixing, 1 pass through Microfluidizer at 24,000 psi, DMSO / 0.5% Triton X-100 in water.
Setting [4] is: with ultrasonic initial mixing, 6 passes through Microfluidizer at 24,000 psi, DMSO / 0.5% Triton X-100 in water.

Consider `COc1ccc2cc([C@H](C)C(=O)O)ccc2c1` [naproxen], for which the “Mean Particle Size” value runs as follows: under setting [1], 4.65 μm and 8.199 μm; under setting [2], 2.4845 μm and 2.47 μm; under setting [3], 1.021 μm and 1.257 μm; under setting [4], 0.6051 μm and 0.606 μm. The Median particle size reads like this: under setting [1], 4.784 μm and 8.324 μm; under setting [2], 1.214 μm and 1.696 μm; under setting [3], 0.3267 μm and 0.6459 μm; under setting [4], 0.5067 μm and 0.4602 μm. Also, the “median naproxen particle size (diameter)” value (with ultrasonic initial mixing, regardless of how many passes were employed) is “less than 1 μm”.
